# Measurements as given in US20240425491A1, “HETEROARYL COMPOUNDS USEFUL IN THE TREATMENT OF COGNITIVE DISORDERS” (University College Cardiff Consultants Limited, priority 2021, published 2024).
# Columns and labels:
# [1] = target: T1, human α5β3γ2 GABAARs in mouse L(tk−) cells (Homo sapiens, UniProt P18507+P31644); experiment: In vitro electrophysiological recording assay (α5-GABAAR relative efficacy), QPatch; format: cell-based; conditions: GABA EC10-20
# T1 construct: expressed in transfected cells; host or cells: mouse L(tk−) cells, dexamethasone-inducible vector pMSGneo
# How it was run: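 Whole-cell QPatch recordings at 20-22° C, −65 mV holding, in dexamethasone-induced (1 μM, 24 h) L(tk−) cells. Compound pre-applied ≥1 min, then co-applied with GABA EC10-20; percentage change in leak-corrected peak current, taken at ≥100× Ki, normalised to DMCM efficacy; 0.1% DMSO final.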
# [2] = target: T2, human recombinant GABAAR containing α5β3γ2 subunits (benzodiazepine site) (Homo sapiens, UniProt P18507+P31644); experiment: In vitro radioligand binding assay (α5-GABAAR Ki); conditions: inhibition of [3H]Ro15-1788 binding, membranes of L(tk−) cells expressing human α5β3γ2; read-out: α5-GABAAR Ki
# T2 construct: expressed in transfected cells; host or cells: mouse L(tk−) cells, dexamethasone-inducible vector pMSGneo
# How it was run: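 Displacement of 4 nM [^3H]flumazenil from the benzodiazepine site, read by filtration and scintillation, gave IC50, converted to Ki (Cheng-Prusoff, saturation-derived Kd). Receptor: human α5β3γ2 membranes from L(tk^−) cells, 50 μg protein/well; 1 h, 4° C; TP003 1 μM defined nonspecific binding.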
# [3] = target: T3, human α5β3γ2L GABAA receptors in HEK293 cells (Homo sapiens, UniProt P18507+P31644); experiment: In vitro electrophysiological recording assay (α5-GABAAR relative efficacy), SyncroPatch; format: cell-based; conditions: Conc 0.1 μM; GABA EC10-20
# T3 construct: expressed in transfected cells
# Description: Mouse L(tk^−) cells stably expressing human α1β3γ2, α2β3γ2, α3β3γ2, α5β3γ2 GABAARs generated by transfection of the individual subunits in the dexamethasone-inducible expression vector pMSGneo in mouse L(tk^−) cells (Hadingham et al., 1993, Mol. Pharmacol. 43:970-975 and 1993, Mol. Pharmacol. 44:1211-1218) were used for binding and functional assays. For certain compounds, HEK293 cells stable expressing the human α1β3γ2L, α2β3γ2L, α3β3γ2L and α5β3γ2L GABAA receptors were used to evaluate their functional effects in a SyncroPatch electrophysiology assay.
# The efficacy of modulators was evaluated using either the automated patch-clamp platform QPatch16 (Sophion, Copenhagen, Denmark) or the SyncroPatch 384i (Nanion Technologies, Germany). Cells were harvested from flasks by enzymatic dissociation and re-suspended in serum-free medium.
# For the Syncropatch recordings, a stacked addition protocol was used, in which GABA was rapidly applied and then washed off from the cell. All experiments were carried out at room temperature (20-22° C.) using a standard whole cell procedure. The currents recorded were acquired at 2 kHz and filtered using a Bessel filter. Whole-cell currents were measured at a holding potential of −80 mV.
# For Syncropatch recordings, the extracellular recording solution contained: 140 mM NaCl, 4 mM KCl, 2 mM CaCl2), 1 mM MgCl2, 10 mM HEPES, 5 mM glucose (pH 7.4 and osmolarity of c. 300-310 mOsm/L). The intracellular recording solution contained: 90 mM KCl, 50 mM KF, 1.5 mM MgCl2, 11.1 mM EGTA and 10 mM HEPES (pH 7.2 and osmolarity of c. 300 mOsm/L). 2 mM of NaATP was added to the intracellular solution on the day of testing.
# The effects of modulators were evaluated in the presence of a submaximal GABA concentration, giving typically 10-20% activation (GABA EC10-20) of the response elicited by a saturating GABA concentration. For QPatch recordings, to check and ensure baseline current stability before compound addition, five consecutive applications of GABA EC10-20 alone (each application with a 2 s duration, separated by minimum 1 min wash off periods) were performed before compound addition. The test compound was applied using the pipetting system of the QPatch system 1 min at least prior to co-application with GABA EC10-20. For SyncroPatch recordings, GABA EC20 alone was applied three times (1 s long applications, with wash steps in-between) before compound addition. This was followed by a 1-2 min pre-incubation with the test compound and then re-application of GABA EC10-20 in the presence of the compound. Finally, following a further wash step, a saturating concentration of GABA was applied, allowing the accurate evaluation for each cell of the percentage baseline activation elicited by the submaximal GABA applied.
# The compounds were first dissolved in DMSO as a 10 mM stock and then further diluted to the testing concentrations so that the final DMSO concentration in the extracellular recording solution was kept constant at 0.1% for the QPatch recordings, or 0.2% for the SyncroPatch recordings.
# The % efficacy of modulators was determined from the GABA elicited currents recorded in the presence and absence of the test compound, using the formula:
# [((compound peak current−leak)−(GABA peak current−leak))/(GABA peak current−leak)]*100,
# where ‘leak’ is the leak baseline current at −65 mV, ‘compound peak current’ is the current elicited by co-application of compound and GABA, and ‘GABA peak current’ is the current elicited by GABA alone during the 5th GABA application. The results were presented as ‘relative efficacy’ for each compound generally at a concentration equal or higher than 100 times their determined Ki. The relative efficacy of a compound was calculated by normalising its efficacy to the efficacy of methyl-6,7-dimethoxy-4-ethyl-beta-carboline-3-carboxylate (DMCM) that was separately determined produced an attenuation of GABA-induced currents of −57±4%, n=5.
# T2 sequence (P31644 32-462): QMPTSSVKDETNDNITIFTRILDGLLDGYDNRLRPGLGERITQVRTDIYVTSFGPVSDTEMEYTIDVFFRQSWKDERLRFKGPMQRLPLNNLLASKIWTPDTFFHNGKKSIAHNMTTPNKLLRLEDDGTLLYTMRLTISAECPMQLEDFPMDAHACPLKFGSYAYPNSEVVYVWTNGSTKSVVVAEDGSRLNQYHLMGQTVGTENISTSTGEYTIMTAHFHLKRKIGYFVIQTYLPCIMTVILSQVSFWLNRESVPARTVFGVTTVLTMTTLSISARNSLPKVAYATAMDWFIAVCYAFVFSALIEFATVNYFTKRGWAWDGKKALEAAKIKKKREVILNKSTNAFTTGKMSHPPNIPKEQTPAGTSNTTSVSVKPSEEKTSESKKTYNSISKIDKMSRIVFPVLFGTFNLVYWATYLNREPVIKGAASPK
# T2 sequence (P28472 26-473 partner): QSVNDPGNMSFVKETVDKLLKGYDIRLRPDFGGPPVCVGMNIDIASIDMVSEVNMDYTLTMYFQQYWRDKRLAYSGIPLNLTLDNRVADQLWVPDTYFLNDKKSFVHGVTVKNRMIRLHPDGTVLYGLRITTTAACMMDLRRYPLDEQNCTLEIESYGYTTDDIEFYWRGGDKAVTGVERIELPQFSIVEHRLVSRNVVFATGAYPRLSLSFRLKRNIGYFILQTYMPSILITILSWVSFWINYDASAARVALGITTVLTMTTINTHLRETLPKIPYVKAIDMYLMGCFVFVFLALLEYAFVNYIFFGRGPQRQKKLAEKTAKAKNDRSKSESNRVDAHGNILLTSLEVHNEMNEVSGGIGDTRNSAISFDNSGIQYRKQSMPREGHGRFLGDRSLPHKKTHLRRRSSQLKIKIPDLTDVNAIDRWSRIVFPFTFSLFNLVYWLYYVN
# T2 sequence (P18507 40-475): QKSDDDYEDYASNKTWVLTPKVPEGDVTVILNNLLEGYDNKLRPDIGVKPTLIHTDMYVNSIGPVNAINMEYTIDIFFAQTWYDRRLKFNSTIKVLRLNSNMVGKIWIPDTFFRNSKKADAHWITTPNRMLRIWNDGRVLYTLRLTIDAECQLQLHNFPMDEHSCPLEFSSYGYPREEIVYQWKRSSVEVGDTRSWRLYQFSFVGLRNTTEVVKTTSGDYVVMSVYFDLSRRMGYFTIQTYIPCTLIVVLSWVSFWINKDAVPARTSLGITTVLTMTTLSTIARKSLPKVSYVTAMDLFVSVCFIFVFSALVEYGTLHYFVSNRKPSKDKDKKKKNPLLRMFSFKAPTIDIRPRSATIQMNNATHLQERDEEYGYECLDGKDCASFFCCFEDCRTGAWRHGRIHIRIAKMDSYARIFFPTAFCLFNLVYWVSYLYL
# T3 sequence (P31644 32-462): as the sequence (P31644 32-462) above
# T3 sequence (P28472 26-473 partner): as the sequence (P28472 26-473 partner) above
# T3 sequence (P18507 40-475): as the sequence (P18507 40-475) above
# T1 sequence (P31644 32-462): as the sequence (P31644 32-462) above
# T1 sequence (P28472 26-473 partner): as the sequence (P28472 26-473 partner) above
# T1 sequence (P18507 40-475): as the sequence (P18507 40-475) above
smiles,measurement,setting,value
"COc1nc(-c2cnc(N)nc2)ccc1NC(=O)c1c(-c2ccccc2)noc1C [Example 43, N-[6-(2-Aminopyrimidin-5-yl)-2-methoxy-3-pyridyl]-5-methyl-3-phenyl-isoxazole-4-carboxamide]","α5-GABAAR Relative Efficacy (to DMCM), Qpatch",[1]; Conc 0.1 μM,−0.76
same,Ki,[2],0.5 nM
same,"α5-GABAAR Relative Efficacy (to DMCM), SyncroPatch",[3],−0.90
"CNc1ncc(-c2ccc(NC(=O)c3c(-c4ccccc4)noc3C)c(OC)n2)cn1 [Example 47, N-[2-Methoxy-6-[2-(methylamino)pyrimidin-5-yl]-3-pyridyl]-5-methyl-3-phenyl-isoxazole-4-carboxamide]","α5-GABAAR Relative Efficacy (to DMCM), Qpatch",[1]; Conc 0.1 μM,−0.81
same,Ki,[2],0.8 nM
same,"α5-GABAAR Relative Efficacy (to DMCM), SyncroPatch",[3],−1.00
"COc1nc(-c2cnc(C(F)(F)F)nc2)ccc1NC(=O)c1c(-c2ccccc2)noc1C [Example 53, N-[2-Methoxy-6-[2-(trifluoromethyl)pyrimidin-5-yl]-3-pyridyl]-5-methyl-3-phenyl-isoxazole-4-carboxamide]","α5-GABAAR Relative Efficacy (to DMCM), Qpatch",[1]; Conc 0.3 μM,−0.92
same,Ki,[2],2.4 nM
same,"α5-GABAAR Relative Efficacy (to DMCM), SyncroPatch",[3],−0.83
"COc1nc(-c2cnc(N)cn2)ccc1NC(=O)c1c(-c2ccccc2)noc1C.Cl [Example 55, N-[6-(5-Aminopyrazin-2-yl)-2-methoxy-3-pyridyl]-5-methyl-3-phenyl-isoxazole-4-carboxamide hydrochloride]","α5-GABAAR Relative Efficacy (to DMCM), Qpatch",[1]; Conc 1 μM,−0.92
same,Ki,[2],3.4 nM
same,"α5-GABAAR Relative Efficacy (to DMCM), SyncroPatch",[3],−0.93
"COc1nc(-c2cnc(N)nc2)cnc1NC(=O)c1c(-c2ccccc2)noc1C [Example 67, N-[5-(2-Aminopyrimidin-5-yl)-3-methoxy-pyrazin-2-yl]-5-methyl-3-phenyl-isoxazole-4-carboxamide]","α5-GABAAR Relative Efficacy (to DMCM), Qpatch",[1]; Conc 0.1 μM,−0.94
same,Ki,[2],0.6 nM
same,"α5-GABAAR Relative Efficacy (to DMCM), SyncroPatch",[3],−1.14
"COc1nc(-c2cnoc2)ccc1NC(=O)c1c(-c2ccccc2)noc1C [Example 68, N-(6-Isoxazol-4-yl-2-methoxy-3-pyridyl)-5-methyl-3-phenyl-isoxazole-4-carboxamide]","α5-GABAAR Relative Efficacy (to DMCM), Qpatch",[1]; Conc 1 μM,−0.66
same,Ki,[2],3.2 nM
same,"α5-GABAAR Relative Efficacy (to DMCM), SyncroPatch",[3],−0.56
"COc1nc(-c2cnc(CN(C)C)nc2)ccc1NC(=O)c1c(-c2ccccc2)noc1C [Example 74, N-[6-[2-[(Dimethylamino)methyl]pyrimidin-5-yl]-2-methoxy-3-pyridyl]-5-methyl-3-phenyl-isoxazole-4-carboxamide]","α5-GABAAR Relative Efficacy (to DMCM), Qpatch",[1]; Conc 0.3 μM,−1.00
same,Ki,[2],2.1 nM
same,"α5-GABAAR Relative Efficacy (to DMCM), SyncroPatch",[3],−0.62
"COc1nc(-c2cnn3ncccc23)ccc1NC(=O)c1c(-c2ccccc2)noc1C [Example 83, N-(2-Methoxy-6-(pyrazolo[1,5-b]pyridazin-3-yl)pyridin-3-yl)-5-methyl-3-phenylisoxazole-4-carboxamide]","α5-GABAAR Relative Efficacy (to DMCM), Qpatch",[1]; Conc 3 μM,−0.71
same,Ki,[2],13 nM
same,"α5-GABAAR Relative Efficacy (to DMCM), SyncroPatch",[3],−0.50
"COc1nc(-c2cnc(N3CCC(O)CC3)nc2)ccc1NC(=O)c1c(-c2ccccc2)noc1C [Example 85, N-(6-(2-(4-Hydroxypiperidin-1-yl)pyrimidin-5-yl)-2-methoxypyridin-3-yl)-5-methyl-3-phenylisoxazole-4-carboxamide]","α5-GABAAR Relative Efficacy (to DMCM), Qpatch",[1]; Conc 0.3 μM,−0.92
same,Ki,[2],1.7 nM
same,"α5-GABAAR Relative Efficacy (to DMCM), SyncroPatch",[3],−0.94
"COc1nc(-c2cncc(OC(F)F)c2)ccc1NC(=O)c1c(-c2ccccc2)noc1C [Example 87, N-(5′-(Difluoromethoxy)-6-methoxy-[2,3′-bipyridin]-5-yl)-5-methyl-3-phenylisoxazole-4-carboxamide]","α5-GABAAR Relative Efficacy (to DMCM), Qpatch",[1]; Conc 1 μM,−0.71
same,Ki,[2],5 nM
same,"α5-GABAAR Relative Efficacy (to DMCM), SyncroPatch",[3],−0.44
"COc1nc(-c2ccc(N)nc2)ccc1NC(=O)c1c(-c2ccccc2)noc1C [Example 89, N-(6′-Amino-6-methoxy-[2,3′-bipyridin]-5-yl)-5-methyl-3-phenylisoxazole-4-carboxamide]","α5-GABAAR Relative Efficacy (to DMCM), Qpatch",[1]; Conc 1 μM,−0.64
same,Ki,[2],3.1 nM
same,"α5-GABAAR Relative Efficacy (to DMCM), SyncroPatch",[3],−0.62
"COc1nc(-c2cnc(O)c(C(F)(F)F)c2)ccc1NC(=O)c1c(-c2ccccc2)noc1C [Example 107, N-(6′-Hydroxy-6-methoxy-5′-(trifluoromethyl)-[2,3′-bipyridin]-5-yl)-5-methyl-3-phenylisoxazole-4-carboxamide]","α5-GABAAR Relative Efficacy (to DMCM), Qpatch",[1]; Conc 3 μM,−0.66
same,Ki,[2],13.5 nM
same,"α5-GABAAR Relative Efficacy (to DMCM), SyncroPatch",[3],−0.47
"COc1nc(-c2cnc(CN)nc2)ccc1NC(=O)c1c(-c2ccccc2)noc1C.Cl [Example 126, N-[6-[2-(Aminomethyl)pyrimidin-5-yl]-2-methoxy-3-pyridyl]-5-methyl-3-phenyl-isoxazole-4-carboxamide hydrochloride]","α5-GABAAR Relative Efficacy (to DMCM), Qpatch",[1]; Conc 0.3 μM,−0.68
same,Ki,[2],1.1 nM
same,"α5-GABAAR Relative Efficacy (to DMCM), SyncroPatch",[3],−0.55
"COc1nc(-c2ccc(N)nn2)ccc1NC(=O)c1c(-c2ccccc2)noc1C [Example 127, N-[6-(6-Aminopyridazin-3-yl)-2-methoxy-3-pyridyl]-5-methyl-3-phenyl-isoxazole-4-carboxamide]","α5-GABAAR Relative Efficacy (to DMCM), Qpatch",[1]; Conc 3 μM,−0.72
same,Ki,[2],21.8 nM
same,"α5-GABAAR Relative Efficacy (to DMCM), SyncroPatch",[3],−0.57
"COc1nc(-c2cnc(C(N)=O)nc2)ccc1NC(=O)c1c(-c2ccccc2)noc1C [Example 129, N-[6-(2-Carbamoylpyrimidin-5-yl)-2-methoxy-3-pyridyl]-5-methyl-3-phenyl-isoxazole-4-carboxamide]","α5-GABAAR Relative Efficacy (to DMCM), Qpatch",[1]; Conc 0.1 μM,−0.77
same,Ki,[2],0.8 nM
same,"α5-GABAAR Relative Efficacy (to DMCM), SyncroPatch",[3],−0.72
"COc1nc(-c2cnc3n2CCN(C)C3)ccc1NC(=O)c1c(-c2ccccc2)noc1C [Example 137, N-(2-Methoxy-6-(7-methyl-5,6,7,8-tetrahydroimidazol[1,2-a]pyrazin-3-yl)pyridin-3-yl)-5-methyl-3-phenylisoxazole-4-carboxamide]","α5-GABAAR Relative Efficacy (to DMCM), Qpatch",[1]; Conc 1 μM,−0.80
same,Ki,[2],3.8 nM
same,"α5-GABAAR Relative Efficacy (to DMCM), SyncroPatch",[3],−0.69
